Tests used:
[1] = phase III, amyotrophic lateral sclerosis, daily subcutaneous administration; cited from earlier work
[2] = test system: primary E18 hippocampal cells; experiment: Rescue of H2O2-induced neurotoxicity (LDH assay); format: cell-based, mouse; conditions: then treatment 24 h
Protocol: Evaluation of cell death and cell viability was performed using the LDH kit (Promega, Madison Wis., USA), following manufactures instructions. Percentages of cell death and cell viability were plotted separately.
In order to evaluate the potential neuroprotective effect of BDNF peptides, the primary E18 hippocampal cells were challenged with 0, 60, 80 and 100 μM H2O2 for 6 hours, and then cells were washed with culture medium and fresh culture medium was added containing the peptides B-5 or B-3 or BDNF or BDNF plus B-3 (see FIGS. 4A and 4B). After 24 hours, the cell viability was assayed by the LDH method.

[3] = test system: E18 primary hippocampal neurons; experiment: Western blots of neuronal markers, densitometry; format: cell-based, mouse; conditions: 5 days
Protocol: (§1) Following treatment in 6-well plates, cells were washed 2× in glucose buffered saline, GBS (5.4 mM KCl, 138 mM NaCl, 22 mM glucose, and 2 mM Na—KPO pH 7.2), and then lysed by 5 min incubation on ice in 100 or 150 μl of ice-cold RIPA buffer (PBS, 1% w/v NP-40 from Fisher Scientific, 0.1% w/v SDS, and 0.5% w/v sodium desoxycholate) containing 1 mM AEBSF (Gold Biotechnology, St. Louis, Mo., USA), 10 μg/ml aprotinin (Sigma-Aldrich, St. Louis, Mo., USA), and 20 μg/ml of leupeptin and pepstatin (US Biochemicals, Cleveland, Ohio, USA), and phosphatase inhibitors: NaF, Na orthovanadate, (3-glycerophosphate, and microcystein (Sigma-Aldrich, St. Louis, Mo., USA). Extracts were prepared by collecting and pooling a minimum of 2 wells by scraping, and lysates were centrifuged at 20,000×g for 10 min at 4° C. Protein concentration of each cell lysate was determined using the BCA kit (Thermo Scientific, Rockford, Ill., USA). The lysates (7.5-20 μg total protein) were separated on 10% SDS-PAGE gels (except for BDNF where 12% gels were employed) and transferred to 0.45 μm PVDF membrane (Pall, Pensacola, Fla., USA) for probing with antibodies as noted. Blots were blocked for 1 hr at 37° C. in 1×TBST (0.05% Tween 20 in TBS) containing 5% w/v blotting grade dry milk (Bio-rad, Hercules, Calif., USA), incubated in primary antibody overnight in blocking buffer at 4° C., washed 3×10 min in TBST at room temperature, followed by incubation with secondary antibody, i.e., peroxidase-conjugated anti-mouse or anti rabbit IgG (Jackson ImmunoResearch Laboratories, West Grove, Pa., USA) diluted in blocking buffer. Blots were washed 3×10 min in TBST and immunoreactive protein bands were visualized with enhanced chemiluminescence (ECL) reagents (Pierce, Rockford, Ill., USA). The ECL films of the blots were scanned and analyzed using Multi Gauge software version 3.0 (Fujifilm, Tokyo, Japan).
(§2) The following primary antibodies were used: rabbit polyclonal anti-NFM (1:1000; Chemicon/Millipore, Billerica, Mass., USA); mouse monoclonal anti-NeuN, clone A60 (1:500; Millipore, Billerica, Mass., USA); rabbit polyclonal anti-Tuj-1, (3—III-tubulin (Covance; 1:800, Emeryville, Calif., USA); mouse monoclonal SMI 52 to the adult isoforms of MAP-2, MAP2a,b (1:1000; Covance, Emeryvilly, Calif., USA); rabbit polyclonal anti-Synapsin I (1:2000; Stressgen, Farmingdale, N.Y., USA); rabbit monoclonal anti-PSD95 (1:1000; Cell signaling, Danvers, Mass., USA); anti tau 92e (1:10000); mouse monoclonal anti-BDNF (1:1000; Calbiochem, Gibbstown, N.J., USA); rabbit polyclonal anti-TrkB (total) (1:500; Santa Cruz Biotechnology, Santa Cruz, Calif., USA); rabbit polyclonal anti-pTrkB (Tyr706) (1:400; Santa Cruz Biotechnology, Santa Cruz, Calif., USA), TrkC (1:1000; Cruz Biotechnology, Santa Cruz, Calif., USA); and pTrkY490 (1:500; Upstate USA Inc., Charlottesville, Va., USA). For loading control, the blots were developed with rabbit polyclonal antibody to GAPDH (1:2000; Santa Cruz Biotechnology, Santa Cruz, Calif., USA).
To biochemically study the effect of BDNF peptides in inducing expression of neuronal markers, protein samples were recovered from cells treated with peptides B-5, B-4, B-3, or vehicle for five days. As a positive control, protein samples were collected from cells treated with BDNF at 20 ng/ml (0.79 nM) or 100 ng/ml (3.95 nM) (FIG. 3D, E). Western blots of the cell lysates were developed with antibodies to Synapsin I (presynaptic marker), PSD95 (postsynaptic marker), NeuN (late neuronal marker), NFM (early neuronal marker), MAP2 (dendritic marker), 0-IIItubulin (early neuronal marker), and tau 92e (axonal marker).

[4] = direct administration into the CNS; cited from earlier work
[5] = in vivo; cited from earlier work
TrkC = target: T1, TrkC (Homo sapiens, UniProt Q16288); experiment: Trk phosphorylation and TrkC expression in TrkC stably-expressing NIH-3T3 cells; format: cell-based; conditions: 20 ng/mL
T1 construct: expressed in transfected cells; host or cells: NIH-3T3 fibroblasts

TrkB receptor = target: T2, TrkB receptor (Mus musculus, UniProt P15209); experiment: TrkB phosphorylation (Tyr 706) and TrkB level in primary E18 hippocampal cells, with or without K252a; format: cell-based; conditions: 20 ng/ml
T2 construct: endogenous in cells; host or cells: primary hippocampal neurons from embryonic day 18 C57BL/6 mice
Protocol: Peptides were dissolved in water in serial dilutions of 10 mM, 1 mM, 100 μM and 10 μM from which the necessary amount was added directly to the culture medium to a final concentration of 0.05 μM, 1 μM, or 10 μM. The BDNF (Peprotech, NJ, USA) was used as a reference in concentrations of 20 ng/ml (0.79 nM) and 100 ng/ml (3.95 nM). Cycloheximide (CHX) (Sigma-Aldrich, St Louis, Mo., USA) was used for blocking protein synthesis. CHX original stock was 100 mg/ml (355.4 mM) in DMSO; from a second stock of 35.54 mM in DMSO, the dilutions were made to the final concentrations of 100 μM. The K252a (CALBIOCHEM/EMD) was used to inhibit the TrkB Receptor. From a stock of 100 μM in DMSO, K252a was diluted to a final working concentration of 200 nM. The E18 primary hippocampal cells were pre-treated with CHX or K252a 1 h prior to the addition of the peptides or BDNF and a time course of these treatments for 15 min, 60 min and 2 days was studied.
as §1
as §2, with “Calif., USA). […]” for “Calif., USA).”

T1 sequence (Q16288 32-839, species assumed): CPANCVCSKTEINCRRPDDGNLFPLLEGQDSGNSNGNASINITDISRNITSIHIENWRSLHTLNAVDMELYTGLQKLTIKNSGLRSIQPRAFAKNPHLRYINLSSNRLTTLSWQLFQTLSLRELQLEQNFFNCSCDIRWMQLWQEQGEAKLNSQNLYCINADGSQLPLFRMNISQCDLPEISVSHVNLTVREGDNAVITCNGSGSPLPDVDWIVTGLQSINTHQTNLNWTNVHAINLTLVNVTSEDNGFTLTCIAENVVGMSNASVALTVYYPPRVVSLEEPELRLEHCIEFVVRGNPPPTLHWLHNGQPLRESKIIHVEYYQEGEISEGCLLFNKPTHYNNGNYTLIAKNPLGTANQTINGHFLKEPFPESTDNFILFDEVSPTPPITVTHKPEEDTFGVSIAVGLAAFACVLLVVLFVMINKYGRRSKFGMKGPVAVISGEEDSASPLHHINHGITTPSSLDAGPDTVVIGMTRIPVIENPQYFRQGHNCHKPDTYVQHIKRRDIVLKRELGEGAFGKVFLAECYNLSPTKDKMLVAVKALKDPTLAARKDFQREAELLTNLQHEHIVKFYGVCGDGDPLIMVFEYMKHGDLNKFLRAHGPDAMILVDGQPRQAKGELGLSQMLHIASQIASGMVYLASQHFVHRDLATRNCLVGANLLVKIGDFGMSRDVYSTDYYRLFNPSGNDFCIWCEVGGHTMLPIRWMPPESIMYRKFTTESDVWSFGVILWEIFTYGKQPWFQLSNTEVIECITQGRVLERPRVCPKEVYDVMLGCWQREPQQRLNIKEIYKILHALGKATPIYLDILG
T2 sequence (P15209 32-821): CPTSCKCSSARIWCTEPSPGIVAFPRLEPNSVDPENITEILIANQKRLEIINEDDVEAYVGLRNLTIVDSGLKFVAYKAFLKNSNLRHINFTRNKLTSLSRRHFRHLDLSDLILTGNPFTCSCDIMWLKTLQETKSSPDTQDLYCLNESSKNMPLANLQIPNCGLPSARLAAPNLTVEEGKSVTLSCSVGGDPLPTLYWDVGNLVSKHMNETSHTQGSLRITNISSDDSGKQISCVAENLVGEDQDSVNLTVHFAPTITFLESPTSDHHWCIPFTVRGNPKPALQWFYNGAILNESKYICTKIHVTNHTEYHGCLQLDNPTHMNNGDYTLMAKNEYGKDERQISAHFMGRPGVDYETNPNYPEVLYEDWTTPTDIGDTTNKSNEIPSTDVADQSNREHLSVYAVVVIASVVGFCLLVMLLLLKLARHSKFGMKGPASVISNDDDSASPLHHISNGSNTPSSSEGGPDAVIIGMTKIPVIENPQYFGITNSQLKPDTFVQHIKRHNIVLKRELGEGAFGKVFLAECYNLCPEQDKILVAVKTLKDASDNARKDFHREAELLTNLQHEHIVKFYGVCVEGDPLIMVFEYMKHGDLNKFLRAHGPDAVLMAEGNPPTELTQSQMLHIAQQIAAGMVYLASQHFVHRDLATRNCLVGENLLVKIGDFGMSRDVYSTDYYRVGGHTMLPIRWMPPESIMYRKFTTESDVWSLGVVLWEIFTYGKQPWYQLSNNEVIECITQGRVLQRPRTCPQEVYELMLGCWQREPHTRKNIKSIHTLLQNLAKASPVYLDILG

| Molecule | clinical benefit [1] | cell death (LDH) ([2]; 0 μM H2O2 6 h) | cell viability (LDH) ([2]; 0 μM H2O2 6 h) | cell death (LDH) ([2]; 60 μM H2O2 6 h) | cell viability (LDH) ([2]; 60 μM H2O2 6 h) | cell death (LDH) ([2]; 80 μM H2O2 6 h) | cell death (LDH) ([2]; 100 μM H2O2 6 h) | NFM expression (Western blot) ([3]; 20 ng/ml) | expression of PSD95 (Western blot) ([3]; 20 ng/ml) | NFM expression (Western blot) ([3]; 100 ng/ml) | expression of PSD95 (Western blot) ([3]; 100 ng/ml) | level of tau (92e antibody, Western blot) [3] | undesirable effects [4] | blood brain barrier (BBB) and intraparenchymal penetrations [5] | plasma half-life [5] | activation of TrkC receptor (TrkC) | expression of TrkC (TrkC) | increase in the phosphorylation of the TrkB receptor (TrkB receptor; 5 min, without K252a) | activation of TrkB (pTrkB Tyr 706 normalized to total TrkB) (TrkB receptor; 1 h) |
| --- | --- | --- | --- | --- | --- | --- | --- | --- | --- | --- | --- | --- | --- | --- | --- | --- | --- | --- | --- |
| BDNF: Brain derived neurotrophic factor (Peprotech), used as a reference at 20 ng/ml and 100 ng/ml | no clinical benefit | not statistically significant | increased cell viability significantly | some reduction in cell death | increased cell viability significantly | not statistically significant | not statistically significant | increased NFM expression in a similar way | increase | increased NFM expression in a similar way | increase | Neither BNDF nor peptides B-3, B-4 or B-5 had any significant effect |  |  |  |  |  |  |  |
| BDNF: Brain derived neurotrophic factor (Peprotech), used as a reference at 20 ng/ml and 100 ng/ml (protein, UniProt P23560 19-247, looked up) Neurotrophic factor BDNF …: APMKEANIRGQGGLAYPGVRTHGTLESVNGPKAGSRGLTSLADTFEHVIEELLDEDQKVRPNEENNKDADLYTSRVMLSSQVPLEPPLLFLLEEYKNYLDAANMSMRVRRHSDPARRGELSVCDSISEWVTAADKKTAVDMSGGTVTVLEKVPVSKGQLKQYFYETKCNPMGYTKEGCRGIDKRHWNSQCRTTQSYVRALTMDSKKRIGWRFIRIDTSCVCTLTIKRGR |  |  |  |  |  |  |  |  |  |  |  |  | weight loss, dysaesthesias (impairment of sensation), and in some cases, pain | poor | less than 1 min | neither the peptides nor BDNF were able to activate this receptor | neither BDNF (20 ng/mL) nor peptides B-5 (1 μM) and B-3 (1 μM) were able to modify the expression of TrkC | significant | strong and significant activation |

From patent US9512178B2, “Neurogenic brain-derived neurotrophic factor peptides” (Research Foundation for Mental Hygiene, Inc., priority 2012, dated 2016)
